The values that follow come from patent publication US20180002320A1, “USE OF MACROCYCLIC PICOLINAMIDES AS FUNGICIDES” (DOW AGROSCIENCES LLC, priority 2014, published 2018).

One experiment has as its system Zymoseptoria tritici. Briefly: Leaf Blotch of Wheat (SEPTTR) fungicidal activity. Format: in vivo. Conditions: Low Volume (121.5 g/H). The procedure:
Technical grades of materials were dissolved in acetone, which were then mixed with nine volumes of H2O containing 110 ppm Triton X-100. The fungicide solutions were applied onto wheat seedlings using an automated booth sprayer to run-off. All sprayed plants were allowed to air dry prior to further handling. All fungicides were evaluated using the aforementioned method for their activity vs. all target diseases, unless stated otherwise. Wheat leaf blotch and brown rust activity were also evaluated using track spray applications, in which case the fungicides were formulated as EC formulations, containing 0.1% Trycol 5941 in the spray solutions. Wheat plants (variety Yuma) were grown from seed in a greenhouse in 50% mineral soil/50% soil-less Metro mix until the first leaf was fully emerged, with 7-10 seedlings per pot. These plants were inoculated with an aqueous spore suspension of Zymoseptoria tritici either prior to or after fungicide treatments. After inoculation the plants were kept in 100% relative humidity (one day in a dark dew chamber followed by two to three days in a lighted dew chamber at 20° C.) to permit spores to germinate and infect the leaf. The plants were then transferred to a greenhouse set at 20° C. for disease to develop. When disease symptoms were fully expressed on the 1st leaves of untreated plants, infection levels were assessed on a scale of 0 to 100 percent disease severity. Percent disease control was calculated using the ratio of disease severity on treated plants relative to untreated plants.

Another experiment has as its system Puccinia triticina. As to the kind of experiment: Wheat Brown Rust (PUCCRT) fungicidal activity. The format is in vivo. The note with it: Low Volume (121.5 g/H). As for the experimental part: Technical grades of materials were dissolved in acetone, which were then mixed with nine volumes of H2O containing 110 ppm Triton X-100. The fungicide solutions were applied onto wheat seedlings using an automated booth sprayer to run-off. All sprayed plants were allowed to air dry prior to further handling. All fungicides were evaluated using the aforementioned method for their activity vs. all target diseases, unless stated otherwise. Wheat leaf blotch and brown rust activity were also evaluated using track spray applications, in which case the fungicides were formulated as EC formulations, containing 0.1% Trycol 5941 in the spray solutions. Wheat plants (variety Yuma) were grown from seed in a greenhouse in 50% mineral soil/50% soil-less Metro mix until the first leaf was fully emerged, with 7-10 seedlings per pot. These plants were inoculated with an aqueous spore suspension of Puccinia triticina either prior to or after fungicide treatments. After inoculation the plants were kept in a dark dew room at 22° C. with 100% relative humidity overnight to permit spores to germinate and infect the leaf. The plants were then transferred to a greenhouse set at 24° C. for disease to develop. Fungicide formulation, application and disease assessment followed the procedures as described in the Example A.

The mark [1] stands for this setting: 72 h, 3 Day Curative, read-out: SEPTTR 3DC disease control.
Setting [2] is: 72 h, 3 Day Curative, read-out: PUCCRT 3DC disease control.
Setting [3] is: 24 h, 1 Day Protectant, read-out: SEPTTR 1DP disease control.
[4] abbreviates: 24 h, 1 Day Protectant, read-out: PUCCRT 1DP disease control.

Like-named read-outs stand apart in the source and are kept apart here. A value given as a limit tells only on which side of the number the result lay.

Regarding `COc1ccc(CO[C@H]2[C@H](C)OC(=O)[C@@H](NC(=O)c3nccc(OC)c3OCOC(C)=O)CCOC[C@@H]2OCc2ccc(OC)cc2)cc1` [Compound 32], the pest or weed control at 121.5 g/ha in the experiment on Zymoseptoria tritici (setting [1]) and in the experiment with Puccinia triticina (setting [2]) was less than 80% each time.

`COc1ccnc(C(=O)N[C@H]2CCCC[C@@H]3OC(C)(C)O[C@H]3[C@H](C)OC2=O)c1OCOC(C)=O` [Compound 33]: the pest or weed control at 121.5 g/ha was less than 80% with Zymoseptoria tritici (setting [3]), more than 80% with Zymoseptoria tritici (setting [1]), more than 80% with Puccinia triticina (setting [4]) and more than 80% with Puccinia triticina (setting [2]).

`COc1ccnc(C(=O)N[C@H]2CCCC[C@H](OC)[C@@H](OC3CCCC3)[C@H](C)OC2=O)c1OCOC(C)=O` [Compound 34]: the pest or weed control at 121.5 g/ha in the experiment on Zymoseptoria tritici (setting [3]) was less than 80%; with Zymoseptoria tritici (setting [1]), more than 80%; with Puccinia triticina (setting [4]), more than 80%; in the experiment on Puccinia triticina (setting [2]), more than 80%.

Regarding `COc1ccnc(C(=O)N[C@H]2CCCC[C@H](Oc3ccccc3)[C@@H](OC3CCCC3)[C@H](C)OC2=O)c1OCOC(C)=O` [Compound 36], the pest or weed control at 121.5 g/ha with Zymoseptoria tritici (setting [3]) was less than 80%; in the experiment with Zymoseptoria tritici (setting [1]), less than 80%; in the experiment with Puccinia triticina (setting [4]) it was more than 80%; in the experiment on Puccinia triticina (setting [2]), more than 80%.

With `COc1ccnc(C(=O)N[C@H]2CCOC[C@H](Oc3ccccc3)[C@@H](Oc3ccccc3)[C@H](C)OC2=O)c1OCOC(C)=O` [Compound 37], the pest or weed control at 121.5 g/ha in the experiment on Zymoseptoria tritici (setting [3]), in the experiment with Zymoseptoria tritici (setting [1]), with Puccinia triticina (setting [4]) and in the experiment on Puccinia triticina (setting [2]) was more than 80% each time.

Turning to `CCCOC(=O)O[C@H]1CCCC[C@H](NC(=O)c2nccc(OC)c2OCOC(C)=O)C(=O)O[C@@H](C)[C@@H]1OCC(C)C` [Compound 38], the pest or weed control at 121.5 g/ha in the experiment on Zymoseptoria tritici (setting [3]) is more than 80%; with Zymoseptoria tritici (setting [1]) it was more than 80%; in the experiment with Puccinia triticina (setting [4]), more than 80%; with Puccinia triticina (setting [2]), less than 80%.

On to `COc1ccnc(C(=O)N[C@H]2CCOC[C@H](OC)[C@@H](Oc3ccccc3)[C@H](C)OC2=O)c1OCOC(C)=O` [Compound 40], for which the pest or weed control at 121.5 g/ha with Zymoseptoria tritici (setting [3]), with Zymoseptoria tritici (setting [1]), in the experiment with Puccinia triticina (setting [4]) and in the experiment on Puccinia triticina (setting [2]) was more than 80% throughout.

As for `CCCO[C@H]1COCC[C@H](NC(=O)c2nccc(OC)c2OCOC(C)=O)C(=O)O[C@@H](C)[C@@H]1Oc1ccccc1` [Compound 41], the pest or weed control at 121.5 g/ha with Zymoseptoria tritici (setting [3]), with Zymoseptoria tritici (setting [1]), in the experiment with Puccinia triticina (setting [4]) and with Puccinia triticina (setting [2]) was more than 80% each time.

Regarding `CCCO[C@H]1[C@H](C)OC(=O)[C@@H](NC(=O)c2nccc(OC)c2OCOC(C)=O)CCOC[C@@H]1Oc1ccccc1` [Compound 42], the pest or weed control at 121.5 g/ha in the experiment with Zymoseptoria tritici (setting [3]) was less than 80%; in the experiment on Zymoseptoria tritici (setting [1]) it was less than 80%; in the experiment with Puccinia triticina (setting [4]), more than 80%; in the experiment with Puccinia triticina (setting [2]) it was less than 80%.

For `COc1ccnc(C(=O)N[C@H]2CCOC[C@H](OC(=O)C(C)C)[C@@H](Oc3ccccc3)[C@H](C)OC2=O)c1OCOC(C)=O` [Compound 44], the pest or weed control at 121.5 g/ha in the experiment on Zymoseptoria tritici (setting [3]) was less than 80%; in the experiment with Zymoseptoria tritici (setting [1]), less than 80%; in the experiment with Puccinia triticina (setting [4]), more than 80%; with Puccinia triticina (setting [2]) it was more than 80%.

With `COc1ccnc(C(=O)N[C@H]2CCOC[C@H](OCC(C)C)[C@@H](Oc3ccccc3)[C@H](C)OC2=O)c1OCOC(C)=O` [Compound 45], the pest or weed control at 121.5 g/ha with Zymoseptoria tritici (setting [3]), in the experiment with Zymoseptoria tritici (setting [1]), in the experiment on Puccinia triticina (setting [4]) and with Puccinia triticina (setting [2]) was more than 80% throughout.

In the case of `COc1ccnc(C(=O)N[C@H]2CCOC[C@H](Oc3ccccc3)[C@@H](OCC(C)C)[C@H](C)OC2=O)c1OCOC(C)=O` [Compound 46], the pest or weed control at 121.5 g/ha in the experiment on Zymoseptoria tritici (setting [3]) is more than 80%; in the experiment with Zymoseptoria tritici (setting [1]), less than 80%; in the experiment on Puccinia triticina (setting [4]), more than 80%; with Puccinia triticina (setting [2]), less than 80%.
